From patent US12077503B2, “Substituted cyclic amides and their use as herbicides” (FMC CORPORATION, priority 2015, dated 2024)

Experiments:
Type in all cases: in vivo
[1] = system: giant foxtail (Setaria faberii); assay: Test A postemergence; details: Setaria faberi, post-emergence, 240 h; for pest or weed control at 125 g/ha: 125 g ai/ha, postemergence, visual injury on 0 to 100 scale (0 no effect, 100 complete control), approx. 10 d, read-out: Foxtail, Giant plant response rating; for pest or weed control at 31 g/ha: Postemergence, 31 g ai/ha, visual injury after approx. 10 d, 0 to 100 scale, 0 no effect, 100 complete control, read-out: Plant response rating, Foxtail, Giant
Outline: (§1)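 Ratings of 0 (no effect) to 100 (complete control) come from visual comparison with untreated controls roughly 10 d after treatment. Test chemicals, formulated in a non-phytotoxic solvent mixture with surfactant, were applied either as a preemergence directed soil spray on seeded soil or postemergence to one- to two-leaf plants 2 to 10 cm tall.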

[2] = system: ragweed (common ragweed, Ambrosia elatior); assay: Test A postemergence; details: Ambrosia artemisiifolia, post-emergence, 240 h; for pest or weed control at 125 g/ha: 125 g ai/ha, postemergence, visual injury vs untreated controls after approx. 10 d, 0 = no effect, 100 = complete control, read-out: Ragweed plant response rating (0 to 100 scale); for pest or weed control at 31 g/ha: Postemergence, 31 g ai/ha, visual injury after approx. 10 d, 0 to 100 scale, 0 no effect, 100 complete control, read-out: Plant response rating, Ragweed
Outline: as §1

[3] = system: pigweed (Amaranthus retroflexus); assay: Test A postemergence; details: Amaranthus retroflexus, post-emergence, 240 h; for pest or weed control at 125 g/ha: 125 g ai/ha, postemergence, visual injury vs untreated controls after approx. 10 d, 0 = no effect, 100 = complete control, read-out: Pigweed plant response rating (0 to 100 scale); for pest or weed control at 31 g/ha: Postemergence, 31 g ai/ha, visual injury after approx. 10 d, 0 to 100 scale, 0 no effect, 100 complete control, read-out: Plant response rating, Pigweed
Outline: as §1

[4] = system: blackgrass (Alopecurus myosuroides); assay: Test A postemergence; details: Alopecurus myosuroides, post-emergence, 240 h; for pest or weed control at 125 g/ha: 125 g ai/ha, postemergence, visual injury on 0 to 100 scale (0 no effect, 100 complete control), approx. 10 d, read-out: Blackgrass plant response rating; for pest or weed control at 31 g/ha: Postemergence, 31 g ai/ha, visual injury after approx. 10 d, 0 to 100 scale, 0 no effect, 100 complete control, read-out: Plant response rating, Blackgrass
Outline: as §1

corn (Zea mays) = assay: Test A postemergence; details: Zea mays, post-emergence, 240 h; for plant injury at 125 g/ha: 125 g ai/ha, postemergence, visual injury on 0 to 100 scale (0 no effect, 100 complete control), approx. 10 d, read-out: Corn plant response rating; for Corn plant response rating (crop injury, 0 = no effect, 100 = complete kill) at 31 g/ha: Postemergence, 31 g ai/ha, visual injury after approx. 10 d, 0 to 100 scale, 100 complete control
Outline: as §1

[5] = system: ryegrass, Italian (Italian ryegrass, Lolium multiflorum); assay: Test A postemergence; details: Lolium multiflorum, post-emergence, 240 h; for pest or weed control at 125 g/ha: 125 g ai/ha, postemergence, visual injury vs untreated controls after approx. 10 d, 0 = no effect, 100 = complete control, read-out: Ryegrass, Italian plant response rating (0 to 100 scale); for pest or weed control at 31 g/ha: Postemergence, 31 g ai/ha, visual injury after approx. 10 d, 0 to 100 scale, 0 no effect, 100 complete control, read-out: Plant response rating, Ryegrass, Italian
Outline: as §1

[6] = system: wheat (Triticum aestivum); assay: Test A postemergence; details: Triticum aestivum, post-emergence, 240 h; for plant injury at 125 g/ha: 125 g ai/ha, postemergence, visual injury vs untreated controls after approx. 10 d, 0 = no effect, 100 = complete control, read-out: Wheat plant response rating (0 to 100 scale); for plant injury at 31 g/ha: Postemergence, 31 g ai/ha, visual injury after approx. 10 d, 0 to 100 scale, 0 no effect, 100 complete control, read-out: Plant response rating, Wheat
Outline: as §1

Kochia (Kochia scoparia) [7] = assay: Test A postemergence; details: Bassia scoparia, post-emergence, 240 h; for pest or weed control at 125 g/ha: 125 g ai/ha, postemergence, visual injury on 0 to 100 scale (0 no effect, 100 complete control), approx. 10 d, read-out: Kochia plant response rating; for pest or weed control at 31 g/ha: Postemergence, 31 g ai/ha, visual injury after approx. 10 d, 0 to 100 scale, 0 no effect, 100 complete control, read-out: Plant response rating, Kochia
Outline: as §1

[8] = system: Galium (catchweed bedstraw, Galium aparine); assay: Test A postemergence; details: Galium, post-emergence, 240 h; for pest or weed control at 125 g/ha: 125 g ai/ha, postemergence, visual injury on 0 to 100 scale (0 no effect, 100 complete control), approx. 10 d, read-out: Galium plant response rating; for pest or weed control at 31 g/ha: Postemergence, 31 g ai/ha, visual injury after approx. 10 d, 0 to 100 scale, 0 no effect, 100 complete control, read-out: Plant response rating, Galium
Outline: as §1

[9] = system: barnyardgrass (Echinochloa crus-galli); assay: Test A postemergence; details: Echinochloa crus-galli, post-emergence, 240 h; for pest or weed control at 125 g/ha: 125 g ai/ha, postemergence, visual injury on 0 to 100 scale (0 no effect, 100 complete control), approx. 10 d, read-out: Barnyardgrass plant response rating; for pest or weed control at 31 g/ha: Postemergence, 31 g ai/ha, visual injury after approx. 10 d, 0 to 100 scale, 0 no effect, 100 complete control, read-out: Plant response rating, Barnyardgrass
Outline: as §1

[10] = system: sedge, umbrella (small-flower umbrella sedge, Cyperus difformis); assay: Test B flooded paddy test; details: Cyperus difformis, 250 g ai/ha, Flood; 0 to 100 scale where 0 is no effect and 100 is complete control; read-out: Sedge, Umbrella plant response rating
Outline: (§2)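 Compound goes directly into floodwater once pots are flooded 3 cm above soil, targeting plants at two leaves; the water depth is then held for the test duration. Plants sit 13–15 d in a greenhouse and are rated visually, 100 denoting complete control.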

rice (Oryra sativa) = assay: Test B flooded paddy test; details: Oryza sativa, 250 g ai/ha, Flood; 0 to 100 scale where 0 is no effect and 100 is complete control; read-out: Rice plant response rating
Outline: as §2

[11] = system: ducksalad (Heteranthera limosa); assay: Test B flooded paddy test; details: Heteranthera limosa, 250 g ai/ha, Flood; 0 to 100 scale where 0 is no effect and 100 is complete control; read-out: Ducksalad plant response rating
Outline: as §2

[12] = system: barnyardgrass (Echinochloa crus-galli); assay: Test B flooded paddy test; details: Echinochloa crus-galli, 250 g ai/ha, Flood; 0 to 100 scale where 0 is no effect and 100 is complete control; read-out: Barnyardgrass plant response rating
Outline: as §2

[13] = system: giant foxtail (Setaria faberii); assay: Test A preemergence; details: Setaria faberi, pre-emergence, 240 h, 0 to 100 scale where 0 is no effect and 100 is complete control, read-out: Foxtail, Giant plant response rating; for pest or weed control at 31 g/ha: 31 g ai/ha, Preemergence; for pest or weed control at 125 g/ha: 125 g ai/ha, preemergence, approx. 10 d
Outline: as §1

[14] = system: ragweed (common ragweed, Ambrosia elatior); assay: Test A preemergence; details: Ambrosia artemisiifolia, pre-emergence, 240 h, 0 to 100 scale where 0 is no effect and 100 is complete control, read-out: Ragweed plant response rating; for pest or weed control at 31 g/ha: 31 g ai/ha, Preemergence; for pest or weed control at 125 g/ha: 125 g ai/ha, preemergence, approx. 10 d
Outline: as §1

[15] = system: pigweed (Amaranthus retroflexus); assay: Test A preemergence; details: Amaranthus retroflexus, pre-emergence, 240 h, 0 to 100 scale where 0 is no effect and 100 is complete control, read-out: Pigweed plant response rating; for pest or weed control at 31 g/ha: 31 g ai/ha, Preemergence; for pest or weed control at 125 g/ha: 125 g ai/ha, preemergence, approx. 10 d
[16] = system: ryegrass, Italian (Italian ryegrass, Lolium multiflorum); assay: Test A preemergence; details: Lolium multiflorum, pre-emergence, 240 h, 0 to 100 scale where 0 is no effect and 100 is complete control, read-out: Ryegrass, Italian plant response rating; for pest or weed control at 31 g/ha: 31 g ai/ha, Preemergence; for pest or weed control at 125 g/ha: 125 g ai/ha, preemergence, approx. 10 d
Outline: as §1

Kochia (Kochia scoparia) [17] = assay: Test A preemergence; details: Bassia scoparia, pre-emergence, 240 h, 0 to 100 scale where 0 is no effect and 100 is complete control, read-out: Kochia plant response rating; for pest or weed control at 31 g/ha: 31 g ai/ha, Preemergence; for pest or weed control at 125 g/ha: 125 g ai/ha, preemergence, approx. 10 d
Outline: as §1

[18] = system: barnyardgrass (Echinochloa crus-galli); assay: Test A preemergence; details: Echinochloa crus-galli, pre-emergence, 240 h, 0 to 100 scale where 0 is no effect and 100 is complete control, read-out: Barnyardgrass plant response rating; for pest or weed control at 31 g/ha: 31 g ai/ha, Preemergence; for pest or weed control at 125 g/ha: 125 g ai/ha, preemergence, approx. 10 d
Outline: as §1

Structure (SMILES)	pest or weed control at 125 g/ha [1] [%]	pest or weed control at 31 g/ha [1] [%]	pest or weed control at 125 g/ha [2] [%]	pest or weed control at 31 g/ha [2] [%]	pest or weed control at 125 g/ha [3] [%]	pest or weed control at 31 g/ha [3] [%]	pest or weed control at 125 g/ha [4] [%]	pest or weed control at 31 g/ha [4] [%]	plant injury at 125 g/ha (corn (Zea mays)) [%]	Corn plant response rating (crop injury, 0 = no effect, 100 = complete kill) at 31 g/ha (corn (Zea mays)) [%]	pest or weed control at 125 g/ha [5] [%]	pest or weed control at 31 g/ha [5] [%]	plant injury at 125 g/ha [6] [%]	plant injury at 31 g/ha [6] [%]	pest or weed control at 125 g/ha (Kochia (Kochia scoparia) [7]) [%]	pest or weed control at 31 g/ha (Kochia (Kochia scoparia) [7]) [%]	pest or weed control at 125 g/ha [8] [%]	pest or weed control at 31 g/ha [8] [%]	pest or weed control at 125 g/ha [9] [%]	pest or weed control at 31 g/ha [9] [%]	also measured
CN1C[C@H](c2ccc(Cl)cc2)[C@@H](C(=O)Nc2ccc(F)c(F)c2F)C1=O [Compound 1144]	90	80	70	20	30	0	40	0	50	20	60	30	50	30	70	50	40	0	90	90	pest or weed control at 250 g/ha [10]: 0%; pest or weed control at 250 g/ha (rice (Oryra sativa)): 20%; pest or weed control at 250 g/ha [11]: 100%; pest or weed control at 250 g/ha [12]: 85%; pest or weed control at 31 g/ha [13]: 90%; pest or weed control at 125 g/ha [13]: 90%; pest or weed control at 31 g/ha [14]: 0%; pest or weed control at 125 g/ha [14]: 20%; pest or weed control at 31 g/ha [15]: 30%; pest or weed control at 125 g/ha [15]: 80%; pest or weed control at 31 g/ha [16]: 50%; pest or weed control at 125 g/ha [16]: 50%; pest or weed control at 31 g/ha (Kochia (Kochia scoparia) [17]): 50%; pest or weed control at 125 g/ha (Kochia (Kochia scoparia) [17]): 60%; pest or weed control at 31 g/ha [18]: 90%; pest or weed control at 125 g/ha [18]: 90%
C=C(C)c1ccc([C@H]2CN(C)C(=O)[C@@H]2C(=O)Nc2cccc(F)c2C)cc1 [Compound 1150]	50	0	0	0	0	0	0	0	20	0	0	0	0	0	20	0	20	0	40	0	pest or weed control at 250 g/ha [10]: 0%; pest or weed control at 250 g/ha (rice (Oryra sativa)): 0%; pest or weed control at 250 g/ha [11]: 0%; pest or weed control at 250 g/ha [12]: 0%; pest or weed control at 31 g/ha [13]: 30%; pest or weed control at 125 g/ha [13]: 90%; pest or weed control at 31 g/ha [14]: 0%; pest or weed control at 125 g/ha [14]: 0%; pest or weed control at 31 g/ha [15]: 0%; pest or weed control at 125 g/ha [15]: 0%; pest or weed control at 31 g/ha [16]: 0%; pest or weed control at 125 g/ha [16]: 0%; pest or weed control at 31 g/ha (Kochia (Kochia scoparia) [17]): 0%; pest or weed control at 125 g/ha (Kochia (Kochia scoparia) [17]): 0%; pest or weed control at 31 g/ha [18]: 0%; pest or weed control at 125 g/ha [18]: 70%
